Where two headings read alike, the source gives them in different places.

From patent US11628186B2, “Method and composition for the reduction of viral replication, duration and spread of the COVID-19 and the flu” (priority 2017, dated 2023) come the findings set out here.

Data set [1] concerns non-cancerous cells. In words: Viable non-cancerous cells after incubation with anticancer drugs in various media (Table VIII). Type of data set: cell-based. Also noted: viability: concentration or dose not given beside the values. Particulars: for Percentage of viable cells after incubation with drugs: drug alone. As to the method: (§1) Peripheral blood monocytes and U937 monocytic leukemia tumor cells were placed in sterile culture flasks and maintained in culture using Dulbecco's Minimal Essential Medium, with 10% fetal calf serum, supplemented with 2 mM glutamine and Pen/Strep. The cytotoxicity of the cytotoxic agent on the cells was analyzed by propidium iodide exclusion techniques and flow cytometric quantitation. Viability of the cells was quantified as the number of cells that excluded the vital dye trypan blue. Sodium pyruvate was dissolved in distilled water and the solution was adjusted to pH 7.4 with calcium, phosphate and magnesium. Solutions were sterile filtered. Stock solutions were prepared so that the vehicle would not be more than 1% of the total volume of the culture media. H-Thymidine Radiosotopic Incorporation Measurement of Cytotoxity. The membrane surfactant enhancers agents (sodium pyruvate and calcium, phosphate and magnesium), was examined for their ability to decrease the Cytotoxity of Doxorubicin to U937 monocytic leukemia cells and normal peripheral blood monocytes. […] Susceptibility studies were conducted to determine the optimal treatment time of the cells with the […] agents prior to treatment of the cells with the cytotoxic agent. The normal cells and U937 leukemic tumor cells were pretreated separately in “wash out” studies with the single agents alone, and in combination, at the optimal concentration described above for various time periods, washed with fresh medium to remove the agents, and treated with the cytotoxic agent. The co-culture of normal and U937 leukemic […] cells was treated essentially in the same manner except that the cells were not treated separately, but co-cultured. […] The cells were then placed in culture medium without the protective agents. […] Normal and U937 tumor cells were co-cultured and the Cytotoxity of Doxorubicin on the cells was determined by viability assays which examined the differential ability of the cytoprotective compositions alone, and in combinations, to protect the normal cells from the Cytotoxity of the chemotherapeutic agent. The cells were isolated and examined for morphological evidence of cytotoxicity or prevention of cytotoxicity. […] DNA synthesis studies using 3Hthymidine (1 uCi/well) were carried out 4 hours prior to termination of the experiment to determine the effect of the formulations on the proliferation of the cells as a measure of the prevention of cytotoxicity and the extent of Doxorubicin-induced cytotoxicity. Propidium iodide exclusion analysis was carried out for direct quantitation of the cytotoxicity and the prevention of cytotoxicity. Each set of studies was performed in triplicate so that statistical analysis of the significant differences between the treatment groups could be conducted. […] Wash-out studies were conducted to determine viability of the peripheral blood monocytes co-cultured with U937 monocytic leukemia cells after 24 hour pretreatment of the cells with the surfactant enhancer, which is also a mitochondrial protective agent, followed by administration of Doxorubicin.

For data set [2], the system named is patients with lung diseases including COPD. In words: Comparison of inhaled salts of pyruvate, 5 ml of 0.5 mM solution (Table I). Particulars: for Increased in FEV-1% lung function: 5 ml of 0.5 mM solution in physiological saline; for Overall Rating 1-10: 1 most negative, 10 best. The protocol: All previous studies using pyruvate to treat Allergic Rhinitis, Asthmatic and COPD patients used only the sodium salt form of pyruvic acid in saline. The drug products that were tested in the six Phase I/II clinical trial were differing concentrations of sodium pyruvate dissolved in 0.9% sodium chloride solution (Saline). These drug products contained 0.5 mM, 1.5 mM, or 5.0 mM of sodium pyruvate in physiological saline. They were administered to normal volunteers and COPD and asthmatics by inhalation therapy. […] Various sodium pyruvate solutions were evaluated in the lungs for their ability to enhance FEV1 values and reduce coughing, and lung tightness.
The amount of the salts delivered in the 5 ml's of the 0.5 mM pyruvate solutions were compared to the amounts of the salts in 5 ml's of human blood. […] When ethyl pyruvate reacts with oxygen radical like hydrogen peroxide, it is converted to ethane and alcohol and Co2 and acetate. Ethane and alcohol are lung irritants.
This formula can also be made by adding 3% calcium phosphate or dicalcium phosphate to the standard 0.5 mM to 30 mM sodium pyruvate saline solution see Table I.

The subject of data set [3] is patients with sinus & lung diseases including IPF and COPD. In words: Salts of pyruvate as 20 mM nasal sprays (Table IX). Particulars: for Overall Rating 1-10: 20 mM (0.22%) nasal spray, 1 most negative, 10 best; for Increased in FEV-1% / Irritation / Percentage Increase in SaO2 over baseline / Percentage increase of Nitric Oxide over baseline / Relief of congestion, coughing and lung tightness: in vivo. The text has this:
They never tested the individual salts for their ability to reduce inflammation or increase lung functions.

The subject of data set [4] is patients suffering from Parkinson. Put plainly: Inhaled pyruvate salts in Parkinson patients. Format: in vivo, human. Particulars: 1 mM solution in the calcium, phosphate, magnesium formula, inhaled every day for five weeks.
Data set [5] has as its system patients with lung diseases including COPD. Put plainly: Comparison of inhaled salts of pyruvate, 5 ml of 5 mM solution (Table II). Particulars: for Increased in FEV-1%: 5 ml of 5 mM solution in saline; for Increased in FEV-1% / Irritation / Percentage Increase in SaO2 over baseline / Percentage increase of Nitric Oxide over baseline / Relief of congestion, coughing and lung tightness: inhaled; for Irritation / Percentage Increase in SaO2 over baseline / Percentage increase of Nitric Oxide over baseline / Relief of congestion, coughing and lung tightness / Overall Rating 1-10: 5 ml of 5 mM solution; for Overall Rating 1-10: 1 most negative, 10 best.

The nature of data set [6]: Viable non-cancerous cells after incubation with anticancer drugs in various media (Table VIII). Format: cell-based. Also noted: viability: concentration or dose not given beside the values. Particulars: non-cancerous cells (normal peripheral blood monocytes). The protocol:
as §1

[7] abbreviates: Drugs in commercial formula with sodium chloride only.
Where [8] appears, read: Drugs in commercial formula with sodium pyruvate with calcium & phosphate & Magnesium ions repeat study.
Setting [9] is: 5 ml of 0.5 mM solution, inhaled.
Where [10] appears, read: 5 mls of a 0.5 mM inhalation solution.
Setting [11] is: Drugs in commercial formula with sodium chloride only, read-out: Percentage of viable non-cancerous cells.
[12] abbreviates: Drugs in commercial formula with sodium pyruvate with calcium & phosphate & Magnesium ions repeat study, read-out: Percentage of viable non-cancerous cells.
The mark [13] stands for this setting: Drugs in commercial formula with sodium pyruvate with calcium & phosphate & magnesium ions, read-out: Percentage of viable non-cancerous cells.
The mark [14] stands for this setting: Drugs in commercial formula with sodium pyruvate without calcium & phosphate & magnesium, read-out: Percentage of viable non-cancerous cells.
[15] abbreviates: drug alone, read-out: Percentage of viable cells after incubation with drugs.
Setting [16] is: Drugs in commercial formula with sodium pyruvate with calcium & phosphate & magnesium ions.
Setting [17] is: Drugs in commercial formula with sodium pyruvate without calcium & phosphate & magnesium.

In the case of `N.N.O=C([O-])C1(C(=O)[O-])CCC1.[Pt+2]` [Carboplatin], the “Percentage of viable non-cancerous cells” value was determined as 50% in data set [1] (setting [7]) and 97% in data set [1] (setting [8]). For the same compound, in data set [1], the “Percentage of viable cells after incubation with drugs” value (shortened to “Percentage of viable cells”) came to 42%.
Turning to `CC(=O)C(=O)[O-].[Li+]` [Lithium, lithium pyruvate], in data set [2] (inhaled), the “Increased in FEV-1% lung function” value is recorded as 1.0% and the bronchial dilator effect entry was “acting as a bronchial dilator”. In data set [2] (setting [9]), the Irritation result was “Yes”; the “Percentage Increase in SaO2 over baseline” value (shortened to “Percentage Increase in SaO2”) is reported as “No”; the “Percentage decrease or increase of Nitric Oxide over baseline” value (shortened to “Percentage decrease or increase”) was “+6.0%”; the “Relief of congestion, coughing and lung tightness” value (“Relief of congestion” for short) came out at 2. Besides, the “Overall Rating 1-10” value in data set [2] (5 ml of 0.5 mM solution) was found to be 2. The “reduction of nitric oxide” value in data set [2] (setting [10]) is reported as “did not reduce nitric oxide”. In addition, the “irritation in the nasal cavities compared with the lungs” value in data set [2] (evaluated in the nasal cavities) is on record as “even more irritating”. Also, the “Irritation” value in data set [2] (inhaled into the lungs) is given as “irritating”. In addition, in data set [3], the “Overall Rating 1-10” value worked out at 2, the “Increased in FEV-1%” value came out at 0.0%, the Irritation result was “Yes” and the “Percentage Increase in SaO2” value was “No”. For the same compound, in data set [3], the “Percentage increase of Nitric Oxide over baseline” value was 00.0%; the “Relief of congestion” value worked out at 2. Besides, the shaking result in data set [4] is listed as “substantially reduced”. Further, in data set [5], the “Increased in FEV-1%” value is on record as 1.0%, the Irritation result is “Yes”, the “Percentage Increase in SaO2” value was “No” and the “Percentage increase of Nitric Oxide over baseline” value was 28.0%. In data set [5], the “Relief of congestion” value is 2; the “Overall Rating 1-10” value was 2.
Turning to `CC(C)(C#N)c1cc(Cn2cncn2)cc(C(C)(C)C#N)c1` [anastrozole], the viability was 25% in data set [6] (setting [11]); 94% in data set [6] (setting [12]); 86% in data set [6] (setting [13]); 50% in data set [6] (setting [14]); 24% in data set [6] (setting [15]).
The matching figures for `O=c1[nH]c(=O)n([C@H]2C[C@H](O)[C@@H](CO)O2)cc1F` [floxuridine]: 38%, 91%, 92%, 58% and 38%.
The matching figures for `CN(Cc1cnc2nc(N)nc(N)c2n1)c1ccc(C(=O)N[C@@H](CCC(=O)O)C(=O)O)cc1` [methotrexate]: 43%, 98%, 94%, 68% and 42%.
On to `O=C1[O][Pt]2([NH][C@@H]3CCCC[C@H]3[NH]2)[O]C1=O` [oxaliplatin], for which the “Percentage of viable non-cancerous cells” value was 24% in data set [1] (setting [7]), 98% in data set [1] (setting [8]), 95% in data set [1] (setting [16]) and 41% in data set [1] (setting [17]). The “Percentage of viable cells” value in data set [1] came out at 23%.
Bevacizumab: the “Percentage of viable non-cancerous cells” value in data set [1] (setting [7]) is on record as 27%; in data set [1] (setting [17]) it was 40%. In data set [1], the “Percentage of viable cells” value came to 21%.
As for Bleomycin, the “Percentage of viable non-cancerous cells” value in data set [1] (setting [7]) is 33%; in data set [1] (setting [8]) it was 98%; in data set [1] (setting [16]) it was 98%; in data set [1] (setting [17]), 47%. Besides, the “Percentage of viable cells” value in data set [1] was determined as 31%.
For the compound magnesium pyruvate, in data set [2] (inhaled), the “Increased in FEV-1% lung function” value amounted to 12.0%. In data set [2] (setting [9]), the Irritation result is given as “None”; the “Percentage Increase in SaO2” value is “no”; the “Percentage decrease or increase” value is −2.0%; the “Relief of congestion” value stood at 6. Also, in data set [2] (5 ml of 0.5 mM solution), the “Overall Rating 1-10” value came out at 7. Moreover, the “FEV1” value in data set [2] (5 mls of a 0.5 mM pyruvate inhalation solution in COPD and asthmatic patients) stood at 10%. Moreover, in data set [3], the “Overall Rating 1-10” value is recorded as 4, the “Increased in FEV-1%” value turned out to be 4.0%, the Irritation result is on record as “slight” and the “Percentage Increase in SaO2” value is on record as “no”. In addition, in data set [3], the “Percentage increase of Nitric Oxide over baseline” value came to 5.1%; the “Relief of congestion” value is 6. Also, the shaking entry in data set [4] is “also worked”. Moreover, in data set [5], the “Increased in FEV-1%” value turned out to be 2.0%, the Irritation result was “None”, the “Percentage Increase in SaO2” value is listed as “no” and the “Percentage increase of Nitric Oxide over baseline” value is recorded as 5.1%. For the same compound, in data set [5], the “Relief of congestion” value is 6; the “Overall Rating 1-10” value amounted to 7.
In the case of zinc pyruvate, the “Increased in FEV-1% lung function” value in data set [2] (inhaled) is 8.0%. In addition, in data set [2] (setting [9]), the Irritation result is given as “Yes”; the “Percentage Increase in SaO2” value is recorded as “No”; the “Percentage decrease or increase” value is listed as “+10%”; the “Relief of congestion” value came to 4. In data set [2] (5 ml of 0.5 mM solution), the “Overall Rating 1-10” value worked out at 4. Besides, in data set [2] (setting [10]), the “increased nitric oxide levels” value worked out at 10% and the “reduction of nitric oxide” value is “did not reduce nitric oxide”. Moreover, the “Irritation” value in data set [2] (inhaled into the lungs) is “irritating”. Further, in data set [3], the “Overall Rating 1-10” value is recorded as 3, the “Increased in FEV-1%” value is 1.0%, the Irritation entry is given as “Yes” and the “Percentage Increase in SaO2” value is “No”. Also, in data set [3], the “Percentage increase of Nitric Oxide over baseline” value came out at 2.0%; the “Relief of congestion” value turned out to be 4. In data set [5], the “Increased in FEV-1%” value is listed as 1.0%, the Irritation result is “Yes”, the “Percentage Increase in SaO2” value is reported as “No” and the “Percentage increase of Nitric Oxide over baseline” value was found to be 22.0%. Moreover, in data set [5], the “Relief of congestion” value stood at 4; the “Overall Rating 1-10” value is 3.
